Results: patent US9376380B2 (University of Pittsburgh—Of the Commonwealth System of …, priority 2011, dated 2016)
Where two headings read alike, the source gives them in different places.

Biological target: CB2 receptor (Homo sapiens, UniProt P34972)
Assay: [3H]CP-55,940 radioligand competition binding, CB2
Parameters: host or cells: cell membrane preparations
Conditions: for SI: selectivity index for CB2: Ki(CB1)/Ki(CB2) ratio
[1] = [3H]CP-55,940 displacement, read-out: Ki (CB2)

Chain of CB2 receptor (P34972 whole entry): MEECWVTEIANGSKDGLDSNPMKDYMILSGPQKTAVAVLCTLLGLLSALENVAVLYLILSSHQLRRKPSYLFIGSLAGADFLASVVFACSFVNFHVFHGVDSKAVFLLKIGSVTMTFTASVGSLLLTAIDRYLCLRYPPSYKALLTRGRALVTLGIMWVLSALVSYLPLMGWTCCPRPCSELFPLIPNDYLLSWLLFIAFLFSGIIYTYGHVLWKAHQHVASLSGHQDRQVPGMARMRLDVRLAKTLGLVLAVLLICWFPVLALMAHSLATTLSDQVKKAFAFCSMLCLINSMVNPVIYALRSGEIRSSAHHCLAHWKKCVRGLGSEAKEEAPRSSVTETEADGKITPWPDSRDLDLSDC

SI: selectivity index for CB2 | Ki [1] [nM] | Compound | Ki [nM]
>43 | 462 | Cc1ccc(C(NC(=O)Cc2ccc(Cl)cc2)NC(=O)Cc2ccc(Cl)cc2)cc1 [Compound 25, N,N′-(p-tolylmethylene)bis(2-(4-chlorophenyl)acetamide)] | 
>65 | 310 | COc1ccc(C(NC(=O)Cc2ccc(Cl)cc2)NC(=O)Cc2ccc(Cl)cc2)cc1 [Compound 26, N,N′-((4-methoxyphenyl)methylene)bis(2-(4-chlorophenyl)acetamide)] | 
>127 | 158 | O=C(Cc1ccc(Cl)cc1)NC(NC(=O)Cc1ccc(Cl)cc1)c1ccccc1C(F)(F)F [Compound 27, N,N′-((2-(trifluoromethyl)phenyl)methylene)bis(2-(4-chlorophenyl)acetamide)] | 
 | > 20000 | O=C(Cc1ccc(Cl)cc1)NC(NC(=O)Cc1ccc(Cl)cc1)c1ccc([N+](=O)[O-])cc1 [Compound 29, N,N′-((4-nitrophenyl)methylene)bis(2-(4-chlorophenyl)acetamide)] | 
 | > 20000 | O=C(Cc1ccc(C(F)(F)F)cc1)NC(NC(=O)Cc1ccc(C(F)(F)F)cc1)c1ccccc1F [Compound 31, N,N′-((2-fluorophenyl)methylene)bis(2-(4-(trifluoromethyl)phenyl)acetamide)] | 
 | > 20000 | O=C(Cc1ccc(C(F)(F)F)cc1)NC(NC(=O)Cc1ccc(C(F)(F)F)cc1)c1ccc(F)cc1 [Compound 32, N,N′-((4-fluorophenyl)methylene)bis(2-(4-(trifluoromethyl)phenyl)acetamide)] | 
 | > 20000 | O=C(Cc1ccc(C(F)(F)F)cc1)NC(NC(=O)Cc1ccc(C(F)(F)F)cc1)c1ccc(Cl)cc1 [Compound 33, N,N′-((4-chlorophenyl)methylene)bis(2-(4-(trifluoromethyl)phenyl)acetamide)] | 
 | > 20000 | Cc1ccc(C(NC(=O)Cc2ccc(C(F)(F)F)cc2)NC(=O)Cc2ccc(C(F)(F)F)cc2)cc1 [Compound 34, N,N′-(p-tolylmethylene)bis(2-(4-(trifluoromethyl)phenyl)acetamide)] | 
 | > 20000 | COc1ccc(C(NC(=O)Cc2ccc(C(F)(F)F)cc2)NC(=O)Cc2ccc(C(F)(F)F)cc2)cc1 [Compound 35, N,N′-((4-methoxyphenyl)methylene)bis(2-(4-(trifluoromethyl)phenyl)acetamide)] | 
 | > 20000 | O=C(Cc1ccccc1)NC(Cc1ccccc1)NC(=O)Cc1ccccc1 [Compound 37, N,N′-(2-phenylethane-1,1-diyl)bis(2-phenylacetamide)] | 
 | 5680 | O=C(Cc1ccccc1)NC(/C=C/c1ccccc1)NC(=O)Cc1ccccc1 [Compound 39, (E)-N,N′-(3-phenylprop-2-ene-1,1-diyl)bis(2-phenylacetamide)] | 
 | 36000 | CCCCC(NC(=O)Cc1ccccc1)NC(=O)Cc1ccccc1 [Compound 40, N,N′-(pentane-1,1-diyl)bis(2-phenylacetamide)] | 
 | 18200 | CCCCCC(NC(=O)Cc1ccccc1)NC(=O)Cc1ccccc1 [Compound 41, N,N′-(hexane-1,1-diyl)bis(2-phenylacetamide)] | 
>29 | 688 | CCN(CC)c1ccc(C(NC(=O)c2ccccc2)NC(=O)c2ccccc2)cc1 [Compound 49, N,N′-((4-(Diethylamino)phenyl)methylene)dibenzamide] | 
>109 | 182 | CCCCC(=O)NC(NC(=O)CCCC)c1ccc(N(CC)CC)cc1 [Compound 52, N,N′-((4-(diethylamino)phenyl)methylene)dipentanamide] | 
>800 | 25 | CCCCCC(=O)NC(NC(=O)CCCCC)c1ccc(N(CC)CC)cc1 [Compound 53, N,N′-((4-(diethylamino)phenyl)methylene)dihexanamide] | 
>136 | 146 | CCCCCCCC(=O)NC(NC(=O)CCCCCCC)c1ccc(N(CC)CC)cc1 [Compound 54, N,N′-((4-(diethylamino)phenyl)methylene)dioctanamide] | 
 |  | CCN(CC)c1ccc(CN(C23CC4CC(CC(C4)C2)C3)S(=O)(=O)c2ccc(C(C)C)cc2)cc1 [Compound 62, N-((3s,5s,7s)-Adamantan-1-yl)-N-(4-(diethylamino)benzyl)-4-isopropylbenzenesulfonamide] | 457
 | 638 | CCCCCCCC(=O)N(Cc1ccc(N(CC)CC)cc1)C12CC3CC(CC(C3)C1)C2 [Compound 64, N-((3s,5s,7s)-Adamantan-1-yl)-N-(4-(diethylamino)benzyl)octanamide] | 
 | 2300 | CCCCCCCN(Cc1ccc(N(CC)CC)cc1)S(=O)(=O)c1cccc(C)c1 [Compound 68, N-(4-(Diethylamino)benzyl)-N-heptyl-3-methylbenzenesulfonamide] | 
 | 13000 | CCCCCCCN(Cc1ccc(N(CC)CC)cc1)S(=O)(=O)c1ccc(C(C)C)cc1 [Compound 69, N-(4-(Diethylamino)benzyl)-N-heptyl-4-isopropylbenzenesulfonamide] | 
 | 5190 | CCCCCCCN(Cc1ccc(N(CC)CC)cc1)S(=O)(=O)c1ccc(OC)cc1 [Compound 70, N-(4-(Diethylamino)benzyl)-N-heptyl-4-methoxybenzenesulfonamide] | 
 | > 20000 | CCCCCCCN(Cc1ccc(N(CC)CC)cc1)S(=O)(=O)c1ccc(OC(C)C)cc1 [Compound 71, N-(4-(Diethylamino)benzyl)-N-heptyl-4-isopropoxybenzenesulfonamide] | 
 | 1100 | CCCCCCCN(Cc1ccc(N(CC)CC)cc1)S(=O)(=O)c1ccc(F)cc1 [Compound 72, N-(4-(Diethylamino)benzyl)-4-fluoro-N-heptylbenzenesulfonamide] | 
 | 6740 | CCCCCCCN(Cc1ccc(N(CC)CC)cc1)S(=O)(=O)c1ccc(Cl)cc1 [Compound 73, 4-Chloro-N-(4-(diethylamino)benzyl)-N-heptylbenzenesulfonamide] | 
 | 273 | CCCCCCCN(Cc1ccc(N(CC)CC)cc1)S(=O)(=O)Cc1ccccc1 [Compound 74, N-(4-(Diethylamino)benzyl)-N-heptyl-1-phenylmethanesulfonamide] | 
 | 1310 | CCCCCCCN(Cc1ccc(N(CC)CC)cc1)C(=O)Cc1ccccc1 [Compound 76, N-(4-(Diethylamino)benzyl)-N-heptyl-2-phenylacetamide] | 

Compound | SI: selectivity index for CB2 | Ki [1] [nM] | Ki [nM]
O=C(Cc1ccc(Cl)cc1)NC(NC(=O)Cc1ccc(Cl)cc1)c1ccc(C(F)(F)F)cc1 [Compound 28, N,N′-((4-(trifluoromethyl)phenyl)methylene)bis(2-(4-chlorophenyl)acetamide)] | >198 | 101 | 
O=C(Cc1ccc(C(F)(F)F)cc1)NC(NC(=O)Cc1ccc(C(F)(F)F)cc1)c1ccccc1 [Compound 30, N,N′-(phenylmethylene)bis(2-(4-(trifluoromethyl)phenyl)acetamide)] |  | > 20000 | 
O=C(Cc1ccc(C(F)(F)F)cc1)NC(NC(=O)Cc1ccc(C(F)(F)F)cc1)c1ccc(C(F)(F)F)cc1 [Compound 36] |  | > 20000 | 
CCN(CC)c1ccc(CN(C23CC4CC(CC(C4)C2)C3)S(=O)(=O)c2ccc(OC)cc2)cc1 [Compound 59, N-(3r)-Adamantan-1-yl)-N-(4-(diethylamino)benzyl)-4-methoxybenzenesulfonamide] |  | 137 | 
CCCCCCCN(Cc1ccc(N(CC)CC)cc1)S(=O)(=O)CCCC [Compound 75, N-(4-(Diethylamino)benzyl)-N-heptylbutane-1-sulfonamide] |  | 680 | 
